# Assay results from patent US9034922B2, “Composition for maintaining function of platelets” (THE UNIVERSITY OF TOKYO, priority 2010, dated 2015).
# Columns and labels:
# [1] = biological target: T1, Matrix metalloproteinase 2 (MMP-2) (Homo sapiens, UniProt P08253); assay: Enzyme inhibition experiment, MMP-2; format: biochemical; conditions: 3163 substrate, 37° C., 5 hours
# T1 construct: purchased Calbiochem 444213
# T1 sequence (P08253 110-660): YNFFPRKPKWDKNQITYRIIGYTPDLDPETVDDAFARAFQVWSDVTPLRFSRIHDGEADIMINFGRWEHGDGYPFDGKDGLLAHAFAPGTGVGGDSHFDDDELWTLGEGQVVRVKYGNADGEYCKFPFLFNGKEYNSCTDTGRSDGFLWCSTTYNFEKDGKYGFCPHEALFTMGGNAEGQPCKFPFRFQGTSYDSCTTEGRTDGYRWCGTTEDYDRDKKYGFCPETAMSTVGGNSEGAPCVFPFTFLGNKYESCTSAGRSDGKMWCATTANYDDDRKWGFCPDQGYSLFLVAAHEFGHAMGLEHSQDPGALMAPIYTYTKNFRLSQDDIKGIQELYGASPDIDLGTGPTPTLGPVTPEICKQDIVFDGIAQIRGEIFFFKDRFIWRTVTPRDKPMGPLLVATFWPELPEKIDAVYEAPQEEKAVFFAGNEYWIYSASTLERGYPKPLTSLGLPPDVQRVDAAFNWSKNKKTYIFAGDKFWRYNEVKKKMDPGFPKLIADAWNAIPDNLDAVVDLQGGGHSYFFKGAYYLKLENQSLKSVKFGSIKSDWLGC
# Description: The enzyme reaction was carried out using the enzymes and substrates. Specifically, if necessary, the enzyme was activated in advance with APMA (final concentration 1 mmol/L, p-aminophenylmercuric acetate, manufactured by Sigma-Aldrich Co., A9563) according to information from the manufacturer. Then, in a 96-well plate for fluorescence measurement, 90 μL of an enzyme solution prepared with Assay Buffer A (50 mmol/L Tris-HCl buffer (pH 7.5) containing 200 mmol/L sodium chloride, 5 mmol/L calcium chloride, 10 μmol/L zinc sulfate, and 2 mg/mL bovine serum albumin) was mixed with 90 μL of the substrate adjusted to be 20 μmol/L with Assay Buffer B (50 mmol/L Tris-HCl buffer (pH 7.5) containing 200 mmol/L sodium chloride, 5 mmol/L calcium chloride, 10 μmol/L zinc sulfate, and 0.05% PLURONIC F-68), and incubated for reaction at 25° C. or 37° C. for several hours. Moreover, the fluorescence intensities before and after the reaction were measured using a fluorometer to determine the enzyme activity.
# [2] = test system: human peripheral blood-derived platelets (ADAM17-mediated GPIbα shedding); assay: Function-maintaining effect on human peripheral blood-derived washed platelets with CCCP (flow cytometry CD41/CD42b); format: cell-based; conditions: Test Example 13; 100 μM CCCP, 37° C., 24 hours; S-45457 50 μM, S-45282 5 μM, p38 inhibitors 40 μM
# Description: Specifically, according to <Protocol 2> illustrated in FIG. 6, first, ACD was added to human peripheral blood obtained by collecting blood at a ratio of 1:10, and centrifuged at 900 rpm for 10 minutes without a break. The supernatant obtained by the centrifugation was further centrifuged at 1500 rpm for 10 minutes without a break, and then the supernatant was removed. The precipitate thus obtained was suspended in a Tyrode-HEPES buffer (not containing calcium). The number of platelets in the suspension was counted, and the suspension (Washed Platelet) was adjusted to contain 5×10^7 to 1×10^8 of platelets/200 μL of the Tyrode-HEPES buffer (not containing calcium). […] After incubation at 37° C. for 24 hours, the numbers of CD41(+)CD42b(+) and CD41(+)CD42b(−) were counted by flow cytometry.
# After incubation at 37° C. for 24 hours, a dot plot analysis on CD41(+) and CD42b(+) was conducted by flow cytometry.
# After incubation at 37° C. for 24 hours and flow cytometry analysis, a percentage of CD41(+)CD42b(+) in the platelets was calculated.
# After incubation at 37° C. for 24 hours, a total number of platelets and the number of CD42b(+) were counted by flow cytometry, and percentage of CD42b(+) in the platelets was calculated.
# After incubation at 37° C. for 24 hours, by flow cytometry, a dot plot analysis on CD41(+) and CD42b(+) was conducted.
# [3] = test system: iPS cell-derived platelets (ADAM17-mediated GPIbα shedding); assay: Function-maintaining effect on iPS cell-derived platelets in culture system (flow cytometry CD41/CD42b, platelet count); format: cell-based, human; conditions: Test Example 7, 8 days
# Source text: As human iPS cells (hiPS cells), an iPS cell line (TkDA3-4) established at the University of Tokyo by introducing Oct4, Klf4, Sox2, and c-Myc into human-derived skin cells was also used). […] The cells were subcultured for every 3 days, and those keeping an undifferentiated state were used.
# Thereby, megakaryocytes/platelets were induced.
# [4] = test system: human platelets in laser/hematoporphyrin-induced thrombus formation; assay: Thrombus formation model in NOG mice with biomolecular imaging (injected human platelets); format: in vivo, mouse; conditions: Test Example 16; platelets prepared with 15 μM S-45457 and 100 μM CCCP, 37° C., 24 hours, injected into NOG mice
# Description: The maintaining effect of the compound (such as S-45457) according to the present invention on the adhesion ability of platelets, particularly adhesion ability of platelets to a blood vessel in vivo, was evaluated using a biomolecular imaging technique and a thrombus formation model developed by the present inventors.
# Note that the thrombus formation model used in this Test Example induces thrombus formation as follows. Specifically, reactive oxygen species (ROS) are generated locally in a blood vessel by using laser irradiation along with hematoporphyrin, and so forth. This gives damage to vascular endothelial cells, and thereby platelets adhere to the blood vessel, so that a thrombus is formed. […]
# First, platelets were prepared for injection into mice used as a model of thrombus formation. […] After the incubation (in the case of the positive control, without incubation), the number of platelets in the precipitate was counted. […] The suspension was then incubated at room temperature for 15 minutes to label the platelets with fluorescence. […]
# Next, the thrombus formation model mouse was prepared. […] Then, platelets labelled with fluorescence as described above were injected into the NOG mouse so that the number of the platelets was 15% of the number of circulating platelets. […]
Compound,IC50 [1] [nM],function-maintaining effect on human peripheral blood-derived platelets (dot plot CD41/CD42b) [2],"toxicity to cells (total number of platelets) ([3]; iPS cells and differentiated cells, 1.5 to 50 μM)","concentration dependency of inhibition of GPIbα shedding ([3]; iPS cells, S-45457 1.5 to 50 μM)",percentage of the human-derived platelets contributing to the thrombus formation [4]
"CC#CCOc1ccc(S(=O)(=O)CC(c2ccc(CN(CC)CC)cc2)N(O)C=O)cc1 (stereo not shown) [Compound I-1, N-[2-(4-But-2-ynyloxybenzenesulfonyl)-1-(4-diethylaminomethylphenyl)ethyl]-N-hydroxyformamide]",150,strong function-maintaining effect on human peripheral blood-derived platelets but not as strong as S-45457,–,–,–
"CC#CCOc1ccc(S(=O)(=O)CC(c2ccc(CNS(C)(=O)=O)cc2)N(O)C=O)cc1 (stereo not shown) [Compound I-4, N-{4-[2-(4-But-2-ynyloxybenzenesulfonyl)-1-(formylhydroxyamino)ethyl]benzyl}methanesulfonamide]",290,suppresses ADAM17-mediated GPIbα (CD42b) shedding,low toxicity,inhibit ADAM17-mediated GPIbα shedding in a manner dependent on the added concentration,higher than that of the negative control
